18 compounds from BindingDB's records for doi:10.1016/j.bmcl.2007.11.067 (Bristol-Myers Squibb, 2008) can be followed below.

Assay [1] in a line: Antagonist activity at human CCR3 receptor in human eosinophil assessed as inhibition of eotaxin-induced chemotaxis.
A short description of assay [2]: Antagonist activity at CCR3 receptor in mouse eosinophil assessed as as inhibition of chemotaxis.
Assay [3] can be described thus: Antagonist activity at CCR3 receptor in cynomolgus monkey eosinophil assessed as as inhibition of chemotaxis.

With `C[C@H](CC(=O)N1CCC[C@@H](Cc2ccc(F)cc2)C1)NC(=O)Nc1cccc(-c2nnnn2C)c1`, in assay [1], the 50% inhibitory concentration (IC50) was 0.2 nM. Consider `C[C@H](CCN1CCC[C@@H](Cc2ccc(F)cc2)C1)NC(=O)Nc1cc(-n2cccn2)cc(-n2cccn2)c1`, for which, in assay [1], the half-inhibitory concentration (IC50) was 0.1 nM.

Consider `CC(=O)c1cc(NC(=O)N[C@@H](C)CCN2CCC[C@@H](Cc3ccc(F)cc3)C2)cc(C(C)=O)c1`, for which, in assay [1], the half-maximal inhibitory concentration (IC50) came out at 60 nM. Take `CCc1cc(NC(=O)N[C@H](C)CCN2CCC[C@@H](Cc3ccc(F)cc3)C2)cc(-c2nnnn2C)c1`: the IC50 in assay [1] worked out at 0.02 nM.

For `C[C@H](CCN1CCC[C@@H](Cc2ccc(F)cc2)C1)NC(=O)Nc1cccc(-c2nnnn2C)c1`, in assay [1], the IC50 came to 1.1 nM.

As for `O=C(NCCCN1CCC[C@@H](Cc2ccc(F)cc2)C1)Nc1cc(-n2cccn2)cc(-n2cccn2)c1`, in assay [1], the 50% inhibitory concentration (IC50) turned out to be 5 nM. On to `CC(C)c1cc(NC(=O)NCCCN2CCC[C@@H](Cc3ccc(F)cc3)C2)cc(-c2nnnn2C)c1`, for which the 50% inhibitory concentration (IC50) in assay [1] came to 0.3 nM. `CC(C)c1cc(NC(=O)N[C@H](C)CCN2CCC[C@@H](Cc3ccc(F)cc3)C2)cc(-c2nnnn2C)c1`: in assay [1], the IC50 was 0.021 nM. Regarding `C[C@@H](CCN1CCC[C@@H](Cc2ccc(F)cc2)C1)NC(=O)Nc1cccc(-c2nnnn2C)c1`, the IC50 in assay [1] was above 1 nM. As to `CCC[C@H](CCN1CCC[C@@H](Cc2ccc(F)cc2)C1)NC(=O)Nc1cc(-c2nnnn2C)cc(C(C)(C)O)c1`, the IC50 in assay [1] worked out at 0.011 nM. Regarding `CC[C@H](CCN1CCC[C@@H](Cc2ccc(F)cc2)C1)NC(=O)Nc1cc(-c2nnnn2C)cc(C(C)(C)O)c1`, in assay [1], the half-inhibitory concentration (IC50) is 0.1 nM.

`CC(=O)c1cc(NC(=O)N[C@H](C)CCN2CCC[C@@H](Cc3ccc(F)cc3)C2)cc(-c2nnnn2C)c1`: in assay [1], the concentration for half-maximal inhibition (IC50) stood at 0.02 nM.

For `CC(=O)c1cc(NC(=O)N[C@H](C)CCN2CCC[C@@H](Cc3ccc(F)cc3)C2)cc(C(C)=O)c1`, the IC50 in assay [1] came to 0.2 nM. Turning to `CC(=O)c1cccc(NC(=O)NCCCN2CCC[C@@H](Cc3ccc(F)cc3)C2)c1` [1-(3-Acetyl-phenyl)-3-{3-[(S)-3-(4-fluoro-benzyl)-piperidin-1-yl]-propyl}-urea], in assay [1], the 50% inhibitory concentration (IC50) was determined as 25 nM. On the same count and under the same terms, the value for `Cn1nnnc1-c1cccc(NC(=O)NCCCN2CCC[C@@H](Cc3ccc(F)cc3)C2)c1` [1-{3-[(S)-3-(4-Fluoro-benzyl)-piperidin-1-yl]-propyl}-3-[3-(1-methyl-1H-tetrazol-5-yl)-phenyl]-urea] was 3.2 nM; that for `Cc1cc(NC(=O)NCCCN2CCC[C@@H](Cc3ccc(F)cc3)C2)cc(-c2nnnn2C)c1` [1-{3-[(S)-3-(4-Fluoro-benzyl)-piperidin-1-yl]-propyl}-3-[3-methyl-5-(1-methyl-1H-tetrazol-5-yl)-phenyl]-urea] was 1 nM. For the compound `C[C@@H](NC(=O)Nc1cccc(-c2nnnn2C)c1)[C@@H](O)CN1CCC[C@@H](Cc2ccc(F)cc2)C1` [1-{(1R,2S)-3-[(S)-3-(4-Fluoro-benzyl)-piperidin-1-yl]-2-hydroxy-1-methyl-propyl}-3-[3-(1-methyl-1H-tetrazol-5-yl)-phenyl]-urea], the results for the IC50 in assay [2], in assay [3] and in assay [1] were 870 nM, 0.15 nM and 0.04 nM, respectively.

`CC(=O)c1cc(NC(=O)NCCCN2CCC[C@@H](Cc3ccc(F)cc3)C2)cc(C(C)=O)c1` [(S)-1-(3-(3-(4-fluorobenzyl)piperidin-1-yl)propyl)-3-(3,5-diacetylphenyl)urea]: the concentration for half-maximal inhibition (IC50) in assay [1] was found to be 3 nM.

As a reminder, the IC50 is the concentration that inhibits the measured activity by half.
